Assays:
[1] = target: T1, Caspase-2 (Homo sapiens, UniProt P42575); experiment: Caspase-2 progress curve inhibition assay; conditions: second-order rate constant; Cbz-VDVAD-AFC substrate; Pipes buffer pH 7.2
T1 sequence (P42575 170-333 limits assumed): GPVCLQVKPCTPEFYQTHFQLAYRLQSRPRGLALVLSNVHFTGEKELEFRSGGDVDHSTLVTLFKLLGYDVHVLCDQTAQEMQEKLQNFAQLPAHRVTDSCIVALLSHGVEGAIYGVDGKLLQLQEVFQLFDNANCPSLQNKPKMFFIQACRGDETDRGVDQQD
T1 sequence (P42575 348-452 limits assumed): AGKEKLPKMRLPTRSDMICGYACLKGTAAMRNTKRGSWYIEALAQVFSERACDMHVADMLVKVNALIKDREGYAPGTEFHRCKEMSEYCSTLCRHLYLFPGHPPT

[2] = target: T2, Caspase-3 (Homo sapiens, UniProt P42574); experiment: Caspase-3 progress curve inhibition assay; conditions: second-order rate constant; Ac-DEVD-AMC substrate; Pipes buffer pH 7.2
T2 sequence (P42574 29-175 limits assumed): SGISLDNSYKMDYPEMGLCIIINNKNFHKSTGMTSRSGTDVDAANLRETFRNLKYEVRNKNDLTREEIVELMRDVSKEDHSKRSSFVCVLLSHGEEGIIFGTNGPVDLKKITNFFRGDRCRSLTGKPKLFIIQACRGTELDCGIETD
T2 sequence (P42574 176-277 limits assumed): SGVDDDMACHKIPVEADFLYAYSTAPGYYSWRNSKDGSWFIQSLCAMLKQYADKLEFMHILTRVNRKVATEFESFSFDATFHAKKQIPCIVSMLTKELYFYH
Procedure: Caspase-2, -3, -6, -7, -8, -9 and -10. […] Inhibition rates were determined by the progress curve method known in the art. This method is suitable for measuring irreversible inhibition rates with fast inhibitors, where the inhibitor, the substrate and the enzyme are incubated together and the rate of substrate hydrolysis is measured continuously. The rate of substrate hydrolysis in the presence of the inhibitor was monitored for 20 minutes. The progress curve of inhibition, where the product formation approaches an asymptote is described in the equation ln([P∞]−[P])=ln[P∞]−A[I]t where [P] and [P∞] are the product concentrations at t and t=∞ respectively, A is the apparent rate constant in the presence of the substrate. The apparent rate constants were determined from the slopes of plots of ln ([P∞]−[P]) versus time (t) in seconds as previously described, where A=slope/[I].
For competitive and irreversible inhibition, the apparent rate constant is converted to the second order rate constant k2 by taking into consideration the effect of the substrate concentration on the apparent rate constant. The second order rate constant is described as in the equation: k2=A*(1+[S]/KM)
The concentration of the caspase-3 stock solution was 2 nM in the assay buffer. Assay buffer is a 1:1 mixture of caspase buffer (40 mM Pipes, 200 mM NaCl, 0.2% (w/v) CHAPS, sucrose 20% (w/v)) and 20 mM DTT solution in H2O at pH 7.2. The concentration of the substrate stock solution was 2 mM in DMSO. The enzyme was pre-activated for 10 min at 37° C. in the assay buffer. […] 50 μL of 2 nM enzyme stock solution (final concentration: 1 nM) was added to the mixture after 1 min and reading started immediately for 20 min at 37° C. Inhibition experiments were repeated in duplicate and standard deviations determined.

[3] = target: T3, Caspase-6 (Homo sapiens, UniProt P55212); experiment: Caspase-6 progress curve inhibition assay; conditions: second-order rate constant; Ac-DEVD-AMC substrate; Pipes buffer pH 7.2
T3 sequence (P55212 24-179 limits assumed): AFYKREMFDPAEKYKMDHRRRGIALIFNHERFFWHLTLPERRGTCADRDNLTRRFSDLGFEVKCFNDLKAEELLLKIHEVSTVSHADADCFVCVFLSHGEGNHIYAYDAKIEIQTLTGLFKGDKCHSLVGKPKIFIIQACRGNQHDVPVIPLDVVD
T3 sequence (P55212 194-293 limits assumed): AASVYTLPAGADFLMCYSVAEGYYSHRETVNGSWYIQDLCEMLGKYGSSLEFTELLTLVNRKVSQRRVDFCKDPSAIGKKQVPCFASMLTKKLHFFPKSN

[4] = target: T4, Caspase-7 (Homo sapiens, UniProt P55210); experiment: Caspase-7 progress curve inhibition assay; conditions: second-order rate constant; Ac-DEVD-AMC substrate; Pipes buffer pH 7.2
T4 sequence (P55210 24-198 limits assumed): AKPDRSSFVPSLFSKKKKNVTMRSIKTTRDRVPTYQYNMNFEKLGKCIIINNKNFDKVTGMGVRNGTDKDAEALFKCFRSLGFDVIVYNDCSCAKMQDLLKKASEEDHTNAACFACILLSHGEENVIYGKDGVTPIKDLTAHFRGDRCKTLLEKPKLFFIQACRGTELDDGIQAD
T4 sequence (P55210 207-303 limits assumed): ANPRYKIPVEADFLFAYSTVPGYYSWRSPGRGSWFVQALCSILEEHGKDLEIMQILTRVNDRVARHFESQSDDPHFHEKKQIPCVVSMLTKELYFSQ

[5] = target: Caspase-8 (Homo sapiens, UniProt Q14790); experiment: Caspase-8 progress curve inhibition assay; conditions: second-order rate constant; Ac-DEVD-AMC substrate; Pipes buffer pH 7.2
Caspase-8, sequence (Q14790 217-374 limits assumed): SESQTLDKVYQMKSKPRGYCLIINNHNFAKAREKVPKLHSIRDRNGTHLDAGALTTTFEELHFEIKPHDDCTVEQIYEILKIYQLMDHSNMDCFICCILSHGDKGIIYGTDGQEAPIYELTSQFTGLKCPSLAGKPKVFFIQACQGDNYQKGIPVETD
Caspase-8, sequence (Q14790 385-479 limits assumed): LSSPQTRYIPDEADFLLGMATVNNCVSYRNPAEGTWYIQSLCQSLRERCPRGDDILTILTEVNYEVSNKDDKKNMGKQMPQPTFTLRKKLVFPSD

[6] = target: T5, Caspase-9 (Homo sapiens, UniProt P55211); experiment: Caspase-9 progress curve inhibition assay; conditions: second-order rate constant; Ac-LEHD-AFC substrate; Hepes buffer pH 7.0 with 0.7 M sodium citrate
T5 sequence (P55211 1-315 limits assumed): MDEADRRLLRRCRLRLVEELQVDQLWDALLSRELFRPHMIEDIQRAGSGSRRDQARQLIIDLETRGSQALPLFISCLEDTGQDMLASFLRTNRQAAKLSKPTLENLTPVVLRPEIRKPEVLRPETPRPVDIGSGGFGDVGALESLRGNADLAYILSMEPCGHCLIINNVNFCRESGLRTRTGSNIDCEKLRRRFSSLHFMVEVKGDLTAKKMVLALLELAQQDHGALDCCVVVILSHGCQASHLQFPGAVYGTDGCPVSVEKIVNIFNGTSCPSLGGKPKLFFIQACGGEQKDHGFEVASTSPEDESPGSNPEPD
T5 sequence (P55211 331-416 limits assumed): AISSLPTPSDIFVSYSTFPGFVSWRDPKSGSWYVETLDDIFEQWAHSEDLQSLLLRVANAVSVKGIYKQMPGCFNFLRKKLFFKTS

[7] = target: T6, Caspase-10 (Homo sapiens, UniProt Q92851); experiment: Caspase-10 progress curve inhibition assay; conditions: second-order rate constant; Ac-DEVD-AMC substrate; Hepes/PEG buffer pH 7.0
T6 sequence (Q92851 220-415 limits assumed): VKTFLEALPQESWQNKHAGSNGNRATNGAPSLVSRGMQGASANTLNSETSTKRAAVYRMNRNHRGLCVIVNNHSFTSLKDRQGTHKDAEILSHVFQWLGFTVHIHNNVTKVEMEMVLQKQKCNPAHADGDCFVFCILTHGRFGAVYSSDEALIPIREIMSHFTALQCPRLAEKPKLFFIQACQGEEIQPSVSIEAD
T6 sequence (Q92851 416-521 limits assumed): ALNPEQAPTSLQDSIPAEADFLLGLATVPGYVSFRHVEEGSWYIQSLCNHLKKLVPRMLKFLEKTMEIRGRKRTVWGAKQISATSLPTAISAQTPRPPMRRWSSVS

SMILES | k2 Caspase-2 [1] [M⁻¹ s⁻¹] | k2 Caspase-3 [2] | k2 Caspase-6 [3] | k2 Caspase-7 [4] | k2 Caspase-8 [5] | k2 Caspase-9 [6] | k2 Caspase-10 [7]
CC(C)C[C@H](NC(=O)OCc1ccccc1)C(=O)N[C@@H](CCC(=O)O)C(=O)N[C@H](C(=O)NN(CC(=O)O)C(=O)/C=C/C(=O)N(Cc1ccccc1)Cc1ccccc1)[C@@H](C)O (relative stereo) [Cbz-Leu-Glu-Thr-AAsp-CH═CH—CON(CH2Ph)2, N^2—(N-Benzyloxycarbonylleucylglutamylthreonyl)-N^1-carboxylmethyl-N^1-trans-(3-dibenzylcarbamoylpropenoyl)hydrazine] | 110 | 8,630 M^−1s^−1 | 14,100 M^−1s^−1 | 760 M⁻¹ s⁻¹ | 129,000 M^−1s^−1 | 1,105 M^−1s^−1 | 8,080 M^−1s^−1
CC(C)C[C@H](NC(=O)OCc1ccccc1)C(=O)N[C@@H](CCC(=O)O)C(=O)N[C@H](C(=O)NN(CC(=O)O)C(=O)/C=C/C(=O)N(C)Cc1ccccc1)[C@@H](C)O (relative stereo) [Cbz-Leu-Glu-Thr-AAsp-CH═CH—CON(CH3)CH2Ph, N^1-trans-(3-Benzylmethylcarbamoylpropenoyl)-N^2—(N-benzyloxycarbonylleucylglutamylthreonyl)-N^1-carboxylmethylhydrazine] | 140 | 6,000 M^−1s^−1 | 10,800 M^−1s^−1 | 520 M⁻¹ s⁻¹ | 169,000 M^−1s^−1 | 4,320 M^−1s^−1 | 8,430 M^−1s^−1
CC(C)C[C@H](NC(=O)OCc1ccccc1)C(=O)N[C@@H](CCC(=O)O)C(=O)N[C@H](C(=O)NN(CC(=O)O)C(=O)/C=C/C(=O)NCCc1ccccc1)[C@@H](C)O (relative stereo) [Cbz-Leu-Glu-Thr-AAsp-CH═CH—CONHCH2CH2Ph, N^2—(N-Benzyloxycarbonylleucylglutamylthreonyl)-N^1-carboxylmethyl-N^1-trans-(3-phenylethylcarbamoylpropenoyl)hydrazine] | 110 | 5,400 M^−1s^−1 | 2,150 M^−1s^−1 | 440 M⁻¹ s⁻¹ | 121,000 M^−1s^−1 | 1,760 M^−1s^−1 | 17,900 M^−1s^−1
CC(C)C[C@H](NC(=O)OCc1ccccc1)C(=O)N[C@@H](CCC(=O)O)C(=O)N[C@H](C(=O)NN(CC(=O)O)C(=O)/C=C/C(=O)NCc1ccccc1)[C@@H](C)O (relative stereo) [Cbz-Leu-Glu-Thr-AAsp-CH═CH—CONHCH2Ph, N^1-trans-(3-Benzylcarbamoylpropenoyl)-N^2—(N-benzyloxycarbonylleucylglutamylthreonyl)-N^1-carboxylmethylhydrazine] | 66 | 1,120 M^−1s^−1 | 1,550 M^−1s^−1 | 340 M⁻¹ s⁻¹ | 70,170 M^−1s^−1 | 1,400 M^−1s^−1 | 14,400 M^−1s^−1
CC(C)C[C@H](NC(=O)OCc1ccccc1)C(=O)N[C@@H](CCC(=O)O)C(=O)N[C@H](C(=O)NN(CC(=O)O)C(=O)/C=C/C(=O)Nc1ccccc1)[C@@H](C)O (relative stereo) [Cbz-Leu-Glu-Thr-AAsp-CH═CH—CONHPh, N^2—(N-Benzyloxycarbonylleucylglutamylthreonyl)-N^1-carboxylmethyl-N^1-trans-(3-phenylcarbamoylpropenoyl)hydrazine] | 290 | 4,700 M^−1s^−1 | 11,400 M^−1s^−1 | 730 M⁻¹ s⁻¹ | 176,000 M^−1s^−1 | 1,190 M^−1s^−1 | 6,050 M^−1s^−1
CCOC(=O)/C=C/C(=O)N(CC(=O)O)NC(=O)[C@@H](NC(=O)[C@H](CCC(=O)O)NC(=O)[C@@H](NC(=O)OCc1ccccc1)C(C)C)C(C)C (relative stereo) [Cbz-Val-Glu-Val-AAsp-CH═CH—COOEt, N^2—(N-Benzyloxycarbonylvalylglutamylvalyl)-N^1-carboxymethyl-N^1-trans-(3-ethoxycarbonylpropenoyl)hydrazine] | 115 | 41,200 M^−1s^−1 | 83,600 M^−1s^−1 | 3,650 M^−1s^−1 | 175,800 M^−1s^−1 | 340 M⁻¹ s⁻¹ | 6,600 M^−1s^−1
CC(C)[C@H](NC(=O)[C@H](CCC(=O)O)NC(=O)[C@H](CC(=O)O)NC(=O)OCc1ccccc1)C(=O)NN(CC(=O)O)C(=O)/C=C/C(=O)NCc1ccc(F)cc1 (relative stereo) [N^2—(N-Benzyloxycarbonylaspartylglutamylvalyl)-N^1-carboxymethyl-N^1-trans-(3-(4-fluorobenzyl)carbamoylpropenoyl)hydrazine] | 130 | 2,100,000 M^−1s^−1 | 4,400 M^−1s^−1 | 329,000 M^−1s^−1 | 85,100 M^−1s^−1 | 900 M⁻¹ s⁻¹ | 37,700 M^−1s^−1
CC(C)[C@H](NC(=O)[C@H](CCC(=O)O)NC(=O)[C@H](CC(=O)O)NC(=O)OCc1ccccc1)C(=O)NN(CC(=O)O)C(=O)/C=C/C(=O)N(C)CCc1ccccc1 (relative stereo) [N^2—(N-Benzyloxycarbonylaspartylglutamylvalyl)-N^1-carboxymethyl-N^1-trans-(3-phenethylmethylcarbamoylpropenoyl)hydrazine] | 320 | 1,180,000 M^−1s^−1 | 4,000 M^−1s^−1 | 172,000 M^−1s^−1 | 31,900 M^−1s^−1 | 425 M⁻¹ s⁻¹ | 9,570 M^−1s^−1
CC(C)C[C@H](NC(=O)OCc1ccccc1)C(=O)N[C@@H](CCC(=O)O)C(=O)N[C@H](C(=O)NN(CC(=O)O)C(=O)/C=C/C(=O)NCc1ccc(F)cc1)[C@@H](C)O (relative stereo) [N^2—(N-Benzyloxycarbonylleucylglutamylthreonyl)-N^1-carboxylmethyl-N^1-trans-(3-(4-fluorobenzyl)carbamoylpropenoyl)hydrazine] | 70 | 4,490 M^−1s^−1 | 3,100 M^−1s^−1 | 410 M⁻¹ s⁻¹ | 171,000 M^−1s^−1 | 1,695 M^−1s^−1 | 9,380 M^−1s^−1

Source: US7482379B2, “Propenoyl hydrazides” (priority 2004, dated 2009)
